Literature values as cited in patent US20070016968A1, “Treatment of pain through expression of opioid receptors” (priority 2003, published 2007).

Columns and labels:
[1] = test system: mice of the CXBX strain; conditions: CXBX strain mice (Rossi et al 1996)
[2] = test system: MOR-1 knockout mice (exon-1); conditions: disruption in exon-1 (Schuller et al 1999)
[3] = test system: mice; conditions: antinociception tests on mice
[4] = test system: μ1-site; conditions: Ling et al 1984, 1985
[5] = test system: μ-receptor; conditions: in vivo studies (Ling et al)
[6] = target: cloned DOR-1 receptor (Mus musculus, UniProt P32300); conditions: mouse recombinant receptor
Chain of cloned DOR-1 receptor (P32300 whole entry): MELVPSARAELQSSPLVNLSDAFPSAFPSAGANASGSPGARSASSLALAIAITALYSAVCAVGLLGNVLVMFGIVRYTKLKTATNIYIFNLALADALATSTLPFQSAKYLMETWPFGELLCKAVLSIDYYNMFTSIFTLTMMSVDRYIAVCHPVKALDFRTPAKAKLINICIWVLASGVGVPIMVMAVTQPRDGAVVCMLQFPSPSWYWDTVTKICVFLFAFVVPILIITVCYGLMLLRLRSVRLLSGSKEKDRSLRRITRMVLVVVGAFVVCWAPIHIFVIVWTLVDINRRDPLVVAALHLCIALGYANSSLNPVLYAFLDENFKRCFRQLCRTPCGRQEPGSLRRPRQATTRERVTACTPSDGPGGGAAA

CC(=O)O[C@H]1C=C[C@H]2[C@H]3Cc4ccc(O)c5c4[C@@]2(CCN3C)[C@H]1O5 [6-acetyl morphine]
antinociceptive activity [1]: potently antinociceptive

CC(=O)Oc1ccc2c3c1O[C@H]1[C@@H](OC(C)=O)C=C[C@H]4[C@@H](C2)N(C)CC[C@@]341 [heroin]
antinociception [2]: still produce antinociception
antinociceptive activity [1]: potently antinociceptive

CN1CC[C@]23c4c5ccc(O)c4O[C@H]2[C@@H](O[C@@H]2O[C@H](C(=O)O)[C@@H](O)[C@H](O)[C@H]2O)C=C[C@H]3[C@H]1C5 [morphine-6b-glucuronide]
antinociceptive activity [1]: potently antinociceptive

CN1CC[C@]23c4c5ccc(O)c4O[C@H]2[C@@H](O)C=C[C@H]3[C@H]1C5 [morphine]
antinociceptive activity [1]: poor antinociceptive agent
cross tolerance with morphine-6b-glucuronide, heroin or 6-acetyl morphine [3]: does not exhibit cross tolerance

C=CCN1CC[C@]23c4c5ccc(O)c4O[C@H]2/C(=N\N)CC[C@@]3(O)[C@H]1C5 [naloxazone]
effect on binding of radioligands to the μ1-site [4]: abolish the binding of radioligands
block of morphine-induced antinociception [5]: selectively blocked
block of morphine-induced respiratory depression [5]: did not block
block of the induction of morphine dependence [5]: did not block

C=CCN1CC[C@]23c4c5ccc(O)c4O[C@H]2/C(=N/N=C2\CC[C@@]4(O)[C@H]6Cc7ccc(O)c8c7[C@@]4(CCN6CC=C)[C@H]2O8)CC[C@@]3(O)[C@H]1C5 [naloxonazine]
effect on binding of radioligands to the μ1-site [4]: abolish the binding of radioligands

Oc1ccc2c3c1O[C@H]1c4oc5ccccc5c4C[C@@]4(O)[C@@H](C2)N(CC2CC2)CC[C@]314 [naltriben]
displacement of [3H]-diprenorphine binding, compared with BNTX [6]: more highly displaced
